In series [1] the test system is Escherichia coli (4 strains). In words: MIC, broth microdilution, normal MH medium. The format is cell-based. As for the experimental part:
(§1) Supplier of the strains: all of the above strains were provided by Sichuan Primed Shines Bio-tech Co., Ltd. A single colony was isolated by streaking on agar plates for each strain prior to the experiment, and the cells freshly cultured at 37° C. overnight were appropriately diluted for the experiment.
(§2) Medium: MH liquid medium (OXOID).
(§3) Culture condition: cells were incubated at 35-37° C. for 16-18 h.
(§4) The broth microdilution method recommended by Clinical and Laboratory Standards Institute (CLSI), Performance Standards for Antimicrobial Susceptibility Testing; Twenty-Third Informational Supplement, M02-All, M07-A9 and M11-A8, 2013 was used to determine the MIC value of each test sample against each test strain in the normal MH medium and iron-deficient MH medium.
(§5) After diluting each sample to different concentrations with normal MH medium, 100 μl of each test sample solution at different concentrations was separately aspirated onto a 96-well sterile polystyrene plate. Drug solutions were added to the 1st to 10th well with the final concentrations of 16, 8, 4, 2, 1, 0.5, 0.25, 0.125, 0.06, and 0.03 mg/L in each well, respectively. The 11th well, as a blank control, was not added with drugs and bacteria. The 12th well, as a bacterial growth control, was added with bacteria but no drug.
(§6) The test bacterial liquid was adjusted to a bacterial suspension of 0.5 Mcfarland standard with physiological saline, and diluted with MH broth at 1:100, and then added to the drug solution so that a final concentration of the bacterial liquid was approximately 10^4 CFU/ml; 100 μl of the bacterial liquid was further added to each of the above wells (the total volume in each well is 200 μl), which was sealed and placed in a 35-37° C. incubator for 18-20 h for testing the result. The OD600 value was measured by a microplate reader, Minimal Inhibitory Concentration (MIC) of a drug is the lowest concentration of the drug which prevents growth of bacteria in the wells. 1.2.2 MIC in iron-deficient MH medium
(In general: Broth dilution looks for growth in wells or tubes with falling amounts of substance.)

Series [2] relates to Acinetobacter baumannii (4 strains). In words: MIC, broth microdilution, normal MH medium. The format is cell-based. The conditions noted are these: Acinetobacter baumannii, read-out: Antibacterial activity MIC, Acinetobacter baumarmii (4 strains). The procedure: as §1, §2, §3, §4, §5, §6
Series [3] has as its system Pseudomonas aeruginosa (4 strains). In words: MIC, broth microdilution, normal MH medium. The series is classed as cell-based. The conditions noted are these: Pseudomonas aeruginosa, multidrug-resistant clinical isolates (integrator I, IMP4), read-out: Antibacterial activity MIC, Pseudomonas aeruginosa (4 strains). As for the experimental part:
as §1, §2, §3, §4, §5, §6

Series [4] deals with Klebsiella pneumoniae (4 strains). In words: MIC, broth microdilution, normal MH medium. The format is cell-based. As for the experimental part:
as §1, §2, §3, §4, §5
The OD600 value was measured by a microplate reader, Minimal Inhibitory Concentration (MIC) of a drug is the lowest concentration of the drug which prevents growth of bacteria in the wells. 1.2.2 MIC in iron-deficient MH medium

Series [5] deals with Escherichia coli ECO-14-4 (ESBLs). In words: In vivo efficacy in mice systemically infected with Escherichia coli ECO-14-4 (ESBLs). The conditions noted are these: Escherichia coli; Kunming mice, intraperitoneal infection, drug s.c. 0.5 h and 4 h after infection, deaths over 7 days, Bliss method; read-out: ED50 Subcutaneous injection. The procedure:
3.1 Test strains: Clinically isolated pathogenic Escherichia coli ECO-14-4 (ESBLs), supplied by Sichuan Primed Shines Bio-tech Co., Ltd.
3.2 Test animals: Kunming mice, age: 4 to 5 weeks, weight: 18 to 22 g, half male, half female, SPF grade.
3.3 Test methods: Mice were randomly divided into several groups, 5 mice for each group, half male and half female, and 5 doses for each test drug: 1.25, 2.5, 5, 10 and 20 mg/kg. The mice were intraperitoneally injected with 0.5 mL of […] CFU/mL bacterial suspension for each mouse, and subcutaneously injected with the drug at the designed dose 0.5 h and 4 h after infection. The subcutaneous injection volume was 0.2 ml/20 g mouse weight; the number of deaths in mice was observed and recorded for 7 consecutive days. According to the number of deaths in mice, the half effective dose ED50 was calculated according to the Bliss method using the DAS 1.0 software, edited by Sun Ruiyuan et al.

For series [6], the system named is Escherichia coli ATCC 35218. In words: MIC, broth microdilution, iron-deficient MH medium. The series is classed as cell-based. Conditions: Escherichia coli, ATCC35218; iron-deficient MH medium (16 mg/L 2,2'-bipyridine); quality control strain; read-out: Antibacterial activity MIC, Escherichia coli ATCC 35218. As for the experimental part: Strain for quality control: Escherichia coli ATCC35218, purchased from National Center of Clinical Laboratory.
as §2, §3, §4
BPL was added to the normal MH medium to obtain a final concentration of 16 mg/L; According to the method in Section 1.2.1, 100 μl of each test sample solution at different concentrations was aspirated to the 1st to 10th well in a 96-well sterile polystyrene plate to obtain the final drug concentrations of 16, 8, 4, 2, 1, 0.5, 0.25, 0.125, 0.06, and 0.03 mg/L, respectively. Then, 100 μl of the test bacterial liquid was added to each well (200 μl per well), and the final concentration of the bacterial liquid was approximately 10^4 CFU/ml. After sealing, it was placed in a 35-37° C. incubator for 18-20 hours for testing the result. The OD600 value was measured by a microplate reader, Minimal Inhibitory Concentration (MIC) of a drug is the lowest concentration of the drug which prevents growth of bacteria in the wells.

Series [7] in a line: Pharmacokinetic test in rats, intravenous. The series is classed as in vivo. Conditions: SD rats, intravenous 1.0 mg/kg, plasma. The procedure:
2.1.2 Test animals: 6 SD rats, male, weight: 200-220 g.
2.1.3 Drug Preparation: an appropriate amount of the sample was weighed and prepared into a 0.2 mg/mL solution with water for injection.
2.1.4 Administration of the drug: 6 SD rats, male, weight: 200-220 g, were randomly divided into two groups, 3 rats in each group. […] The intravenous dose was 1.0 mg/kg, and the intravenous volume was 5 mL/kg.
Intravenous administration: 2 min, 5 min, 15 min, 30 min, 45 min, 1 h, 1.5 h and 3 h after administration. At the above set time points, 0.3 ml of venous blood was taken from the posterior venous plexus of the rat eye, placed in a heparinized tube, centrifuged at 11,000 rpm for 5 min, then the plasma was separated and stored in a refrigerator at −20° C. All of the rats were fed 2 hours after administration.
After administration, the pharmacokinetic parameters were calculated using a non-compartmental model of WinNonlin 5.3 software (Pharsight, USA).

Where a name gives a salt, the structure may show the parent alone.

One may read the MIC as the lowest concentration that inhibits growth of the organism. A word on the ED50: it is the midpoint of the dose-response relation. Usually MRT stands for the average time that molecules of a dose stay in the body. Turning to `CC(C)C(O/N=C(\C(=O)N[C@@H]1C(=O)N(OS(=O)(=O)O)C1(C)C)c1csc(N)n1)c1cc(=O)c(O)cn1O` (stereo partly drawn) [Compound 12, (3S)-3-((Z)-2-(2-aminothiazol-4-yl)-2-((1-(1,5-dihydroxy-4-oxo-1,4-dihydropyridin-2-yl)methylisopropyloxy)imine)acetamido)-2,2-dimethyl-4-oxoazetidine-1-hydrogen sulfate], the MIC was 0.03 to 0.25 µg/mL in series [1] (Escherichia coli, clinical isolates (ESBLs), read-out: Antibacterial activity MIC, Escherichia coli (4 strains)); 2 µg/mL in series [2]; 0.25 to 2 µg/mL in series [3]; 0.5 to 1 µg/mL in series [4] (Klebsiella pneumoniae, multi-drug resistant clinical isolates (KPC2), read-out: Antibacterial activity MIC, Klebsiella pneumoniae (4 strains)); below 0.03 µg/mL in series [6]. For the same compound, in series [1] (from MIC of Table 2), the “times more effective than BAL30072 in inhibitory activity against Escherichia coli” value was 4-32 times. Besides, the “times more effective than BAL30072 in inhibitory activity against Klebsiella pneumoniae” value in series [4] (from MIC of Table 2) was 64-128 times. Also, in series [5], the ED50 came to 3.37 mg/kg. In series [7], the “Clearance CL” value was 11 ± 5.5 mL/min/kg. Moreover, in series [7], the “Half-life T1/2” value stood at 27 ± 6.6 min. Besides, the Vd in series [7] (male, rat, in vivo, read-out: Apparent Distribution Volume Vss) worked out at 0.3 ± 0.03 L/kg. In series [7] (male, rat, in vivo, read-out: Area Under the Curve AUC0-4), the AUC(0-t) is 1730 ± 697 ng·h/mL. Also, the MRT in series [7] (male, rat, read-out: Residence Time MRT) worked out at 30.6 ± 10.8 min.

Source of the values: patent publication US10501454B2, “Monocyclic β-lactam-siderophore conjugate, and preparation method and use thereof” (Shanghai Institute of Materia Medica, Chinese Academy of …, priority 2016, dated 2019).
